In US9090599B2, “Heteroarylmethyl amides” (Hoffman-La Roche Inc., priority 2010, dated 2015):
Read-outs that look alike come from different tables or passages of the source.

Tests used:
[1] = tested on: ABCA1 protein; assay: Detection of upregulation of ABCA1 protein in THP-1 macrophage cells (ApoA-I binding, high content imaging); type: cell-based; conditions: 24 hrs with compound, AlexaFluor 647 ApoA-I binding, read-out: ABCA1 protein increasing efficacy EC50
Description: The ability of compounds of the invention to increase the level of ABCA1 protein is determined in replicate cultures of THP-1 macrophage cells in 96-well microplates. Cells are plated at an initial density of 100,000 cells/well in 100 μl medium and differentiated to adherent macrophages with the addition of PMA (100 nM) for 68 hrs in 10% fetal bovine serum, 3 μl/L of b-mercaptoethanol, RPMI-1640 medium. Then, cells are incubated with RPMI-1640 medium containing 1% FCS, 25 μg/ml acetylated LDL, for 24 hours at 37°. Following incubation with acetylated LDL, cells are washed twice with 50 μl PBS and incubated with 100 μl of RPMI-1640 medium containing the compound of interest solubilized in DMSO for an additional 24 hrs. The final DMSO concentration in presence of cells is maintained at 0.5%. ApoA-I binding assay using High Content Image Analysis is initiated by replacing with fresh medium, RPMI without Phenol Red, 0.2% BSA containing AlexaFluor®647 labeled ApoA-I for 2 h/37° C./5% CO2. Then, cells are fixed with 4% Formaldehyde in PBS (15 min, RT). Following Nuclei are stained with Hoechst solution (3 μM PBS) and Cytoplasm with Cell Mask Blue (2 μg/ml PBS), 15 min, RT. Finally the stained cells are fixed with a second round of formaldehyde treatment. Fixed stained cells are washed and kept in PBS at 4° C. and can be read immediately until one month after preparation.
The Alexa Fluor 647-labeled Apolipoprotein A-I (20 nM) was prepared as follows: Human recombinant Apolipoprotein A-I (ApoA-I) was exchanged to a buffer of 0.02 M NaHCO3 at pH 8.2 on an NAP desalting column (GE Healthcare) and brought to a concentration to 40 μM (1.13 mg/ml) by adjustment with the same buffer. The ApoA-I was fluorescently labeled by incubation with Alexa Fluor carboxylic acid succimidyl ester. (Alexa Fluor 647, Invitrogen A-20006) at a 2:1 molar ratio (Alexa to ApoA-I) for 1 h under shaking at RT. The remaining unconjugated label was removed by buffer exchange to 0.02M NaHCO3 at pH 8.2.
Imaging and data collection were performed on an OPERA confocal microplate imaging reader using a 20× water immersion objective and UV360 or 405 laser to identify the cell nuclei and a 635 laser to identify the fluorescent ApoA-I. Eight fields of view are captured per well. Image capture and analysis was performed with the Acapella software. Background fluorescence detected in control wells without ApoA-I was subtracted.
Using XLfit3 program (ID Business Solutions Ltd. UK), the model 205 for Dose Response One Site is used to calculate the EC50 values. […] Preferably, the compounds of the present invention have EC50 values in a range of 0.1 μM to 3 μM.

[2] = target: T1, human CB1 receptor (Homo sapiens, UniProt P21554); assay: CB1 receptor affinity, [3H]-CP-55,940 displacement, HEK cell membranes; type: binding; conditions: read-out: CB1 receptor affinity [% inhibition @ 10 μM]
T1 construct: expressed in transfected cells; host or cells: human embryonic kidney (HEK) cells, Semliki Forest Virus system, membrane preparations
Method in brief: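 Membranes from HEK cells transiently expressing human CB1 (Semliki Forest Virus system) incubated with [3H]-CP-55,940 with or without test compound. Bound and free ligand separated by glass-fibre filtration and bound radioactivity counted by scintillation. Compounds tested at 10 μM, values reported as % inhibition of radioligand binding.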

[3] = target: T2, human CB2 receptor (Homo sapiens, UniProt P34972); assay: CB2 receptor affinity, [3H]-CP-55,940 displacement, HEK cell membranes; type: binding; conditions: 10 μM compound, radioligand [3H]-CP-55,940
T2 construct: expressed in transfected cells; host or cells: human embryonic kidney (HEK) cells, Semliki Forest Virus system, membrane preparations
Method in brief: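 Membranes from HEK cells transiently expressing human CB2 (Semliki Forest Virus) incubated with [3H]-CP-55,940 ± compound at 10 μM. Bound ligand separated by glass-fibre filtration and counted by scintillation; reported as % inhibition at 10 μM.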

[4] = 10 μM compound, radioligand [3H]-CP-55,940

T2 sequence (P34972 whole entry): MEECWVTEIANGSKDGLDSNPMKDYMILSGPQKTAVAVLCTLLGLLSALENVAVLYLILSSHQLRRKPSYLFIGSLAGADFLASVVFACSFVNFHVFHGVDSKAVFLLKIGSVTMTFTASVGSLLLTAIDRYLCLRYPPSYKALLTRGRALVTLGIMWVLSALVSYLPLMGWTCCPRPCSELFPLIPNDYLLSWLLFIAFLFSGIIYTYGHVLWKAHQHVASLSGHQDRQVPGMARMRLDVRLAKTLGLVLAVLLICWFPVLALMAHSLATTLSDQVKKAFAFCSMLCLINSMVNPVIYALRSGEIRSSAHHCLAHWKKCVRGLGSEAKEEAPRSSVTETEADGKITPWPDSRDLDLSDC
T1 sequence (P21554 whole entry): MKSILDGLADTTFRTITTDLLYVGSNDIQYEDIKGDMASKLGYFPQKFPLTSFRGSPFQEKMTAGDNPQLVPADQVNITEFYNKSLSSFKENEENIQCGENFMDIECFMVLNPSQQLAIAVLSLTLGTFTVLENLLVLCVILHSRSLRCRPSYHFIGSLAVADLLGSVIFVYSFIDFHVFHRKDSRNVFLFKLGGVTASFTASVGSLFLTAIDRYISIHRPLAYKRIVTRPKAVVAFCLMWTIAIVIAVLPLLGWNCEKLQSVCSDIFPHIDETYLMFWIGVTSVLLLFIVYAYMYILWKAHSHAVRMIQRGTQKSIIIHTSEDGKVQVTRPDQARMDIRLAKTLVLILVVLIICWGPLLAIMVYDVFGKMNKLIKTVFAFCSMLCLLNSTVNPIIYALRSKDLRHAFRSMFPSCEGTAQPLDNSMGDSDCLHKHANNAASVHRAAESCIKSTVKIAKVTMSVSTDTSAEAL

inhibition at 10 µM [2, 4] [%] | inhibition at 10 µM [3] [%] | SMILES | EC50 [1] [µM] | inhibition at 10 µM [2] [%]
29 | 8 | CC(C)c1cc(CNC(=O)c2ncc(OCC(F)(F)F)c(-c3ccc(Cl)cc3)n2)on1 [Example 44, 4-(4-chloro-phenyl)-5-(2,2,2-trifluoro-ethoxy)-pyrimidine-2-carboxylic acid (3-isopropyl-isoxazol-5-ylmethyl)-amide] | 1.02 | –
30 | 0 | O=C(NCc1nc(C(F)(F)F)no1)c1cc(-c2ccc(Cl)cc2)c(OCC(F)(F)F)nn1 [Example 46, 5-(4-chloro-phenyl)-6-(2,2,2-trifluoro-ethoxy)-pyridazine-3-carboxylic acid (3-trifluoromethyl-[1,2,4]oxadiazol-5-ylmethyl)-amide] | 0.78 | –
35 | 19 | O=C(NCc1nc(C2CC2)no1)c1cc(-c2ccc(Cl)cc2)c(OCC(F)(F)F)nn1 [Example 48, 5-(4-chloro-phenyl)-6-(2,2,2-trifluoro-ethoxy)-pyridazine-3-carboxylic acid (3-cyclopropyl-[1,2,4]oxadiazol-5-ylmethyl)-amide] | 0.73 | –
30 | -3 | O=C(NCc1cc(C(F)(F)F)no1)c1cc(-c2ccc(Cl)cc2)c(OCC(F)(F)F)nn1 [Example 60, 5-(4-chloro-phenyl)-6-(2,2,2-trifluoro-ethoxy)-pyridazine-3-carboxylic acid (3-trifluoromethyl-isoxazol-5-ylmethyl)-amide] | 0.75 | –
32 | 17 | O=C(NCc1cc(C(F)(F)F)no1)c1ncc(OCC(F)(F)F)c(-c2ccc(Cl)cc2)n1 [Example 61, 4-(4-chloro-phenyl)-5-(2,2,2-trifluoro-ethoxy)-pyrimidine-2-carboxylic acid (3-trifluoromethyl-isoxazol-5-ylmethyl)-amide] | 0.82 | –
33 | 7 | CC(C)c1cc(CNC(=O)c2ccc(OCC(F)(F)F)c(-c3ccc(Cl)cc3)n2)on1 [Example 64, 6-(4-chloro-phenyl)-5-(2,2,2-trifluoro-ethoxy)-pyridine-2-carboxylic acid (3-isopropyl-isoxazol-5-ylmethyl)-amide] | 0.86 | –
25 | 3 | O=C(NCc1cc(C(F)(F)F)on1)c1cc(-c2ccc(Cl)cc2)c(OCC(F)(F)F)nn1 [Example 67, 5-(4-chloro-phenyl)-6-(2,2,2-trifluoro-ethoxy)-pyridazine-3-carboxylic acid (5-trifluoromethyl-isoxazol-3-ylmethyl)-amide] | 0.78 | –
28 | 14 | O=C(NCc1coc(C2CC2)n1)c1cc(-c2ccc(Cl)cc2)c(OCC(F)(F)F)cn1 [Example 70, 4-(4-chlorophenyl)-N-((2-cyclopropyloxazol-4-yl)methyl)-5-(2,2,2-trifluoroethoxy)picolinamide] | 1.56 | –
2 | -7 | Cc1cc(-c2cc(C(=O)NCc3csc(C4CC4)n3)cnc2OCC(F)(F)F)ccc1Cl [Example 71, 5-(4-chloro-3-methylphenyl)-N-((2-cyclopropylthiazol-4-yl)methyl)-6-(2,2,2-trifluoroethoxy)nicotinamide] | 4.29 | –
34 | -1 | Cc1cc(-c2cc(C(=O)NCc3nc(C(F)(F)F)no3)cnc2OCC(F)(F)F)ccc1Cl [Example 72, 5-(4-chloro-3-methylphenyl)-6-(2,2,2-trifluoroethoxy)-N-((3-(trifluoromethyl)-1,2,4-oxadiazol-5-yl)methyl)nicotinamide] | 0.5 | –
8 | 9 | Cc1cc(-c2cc(C(=O)NCc3csc(C4CC4)n3)ncc2OCC(F)(F)F)ccc1Cl [Example 76, 4-(4-chloro-3-methylphenyl)-N-((2-cyclopropylthiazol-4-yl)methyl)-5-(2,2,2-trifluoroethoxy)picolinamide] | 1.64 | –
42 | 4 | Cc1ccc(-c2cc(C(=O)NCc3nc(C(F)(F)F)no3)cnc2OCC(F)(F)F)cc1 [Example 79, 5-p-tolyl-6-(2,2,2-trifluoroethoxy)-N-((3-(trifluoromethyl)-1,2,4-oxadiazol-5-yl)methyl)nicotinamide] | 1.17 | –

The next lines start with the compound.

SMILES | inhibition at 10 µM [2, 4] [%] | inhibition at 10 µM [3] [%] | EC50 [1] [µM] | inhibition at 10 µM [2] [%]
COc1cc(CNC(=O)c2ncc(OCC(F)(F)F)c(-c3ccc(Cl)c(Cl)c3)n2)on1 [Example 25, 4-(3,4-dichlorophenyl)-N-((3-methoxyisoxazol-5-yl)methyl)-5-(2,2,2-trifluoroethoxy)pyrimidine-2-carboxamide] | 11 | 17 | 1.47 | –
CC(C)c1cc(CNC(=O)c2cc(-c3ccc(Cl)cc3)c(OCC(F)(F)F)cn2)no1 [Example 27, 4-(4-chlorophenyl)-N-((5-isopropylisoxazol-3-yl)methyl)-5-(2,2,2-trifluoroethoxy)picolinamide] | 40 | 24 | 0.97 | –
O=C(NCc1cc(C2CC2)on1)c1cc(-c2ccc(Cl)cc2)c(OCC(F)(F)F)cn1 [Example 28, 4-(4-chlorophenyl)-N-((5-cyclopropylisoxazol-3-yl)methyl)-5-(2,2,2-trifluoroethoxy)picolinamide] | 42 | 29 | 0.87 | –
COc1cc(CNC(=O)c2cnc(O[C@@H](C)C(F)(F)F)c(-c3ccc(Cl)cc3)n2)on1 [Example 29, (S)-6-(4-chlorophenyl)-N-((3-methoxyisoxazol-5-yl)methyl)-5-(1,1,1-trifluoropropan-2-yloxy)pyrazine-2-carboxamide] | 27 | 17 | 1.87 | –
CC(C)c1cc(CNC(=O)c2cnc(OCC(F)(F)F)c(-c3ccc(Cl)cc3)c2)no1 [Example 31, 5-(4-chlorophenyl)-N-((5-isopropylisoxazol-3-yl)methyl)-6-(2,2,2-trifluoroethoxy)nicotinamide] | – | 11 | 0.53 | 47
COc1cc(CNC(=O)c2cnc(O[C@@H](C)C(F)(F)F)c(-c3ccc(Cl)cc3)c2)on1 [Example 34, (S)-5-(4-chlorophenyl)-N-((3-methoxyisoxazol-5-yl)methyl)-6-(1,1,1-trifluoropropan-2-yloxy)nicotinamide] | 33 | 14 | 0.77 | –
C[C@H](Oc1ncc(C(=O)NCc2nc(C(F)(F)F)no2)cc1-c1ccc(Cl)cc1)C(F)(F)F [Example 38, (S)-5-(4-chlorophenyl)-N-((3-(trifluoromethyl)-1,2,4-oxadiazol-5-yl)methyl)-6-(1,1,1-trifluoropropan-2-yloxy)nicotinamide] | 32 | -2 | 0.95 | –
CC(C)c1cc(CNC(=O)c2cc(-c3ccc(Cl)cc3)c(OCC(F)(F)F)nn2)no1 [Example 42, 5-(4-chloro-phenyl)-6-(2,2,2-trifluoro-ethoxy)-pyridazine-3-carboxylic acid (5-isopropyl-isoxazol-3-ylmethyl)-amide] | 34 | 13 | 0.8 | –
COc1cc(CNC(=O)c2cc(-c3ccc(Cl)c(C)c3)c(OCC(F)(F)F)cn2)on1 [Example 74, 4-(4-chloro-3-methylphenyl)-N-((3-methoxyisoxazol-5-yl)methyl)-5-(2,2,2-trifluoroethoxy)picolinamide] | – | 22 | 1.3 | 11
